In PubChem BioAssay AID2060499 (Molecular Pharmacology Branch, DTP, NCI, 2025):
Values joined by “and” are separate entries in the source; they are usually repeats but may differ in a detail not shown here. Equal entries are not always repeated.

System: 777334-354-R2-J4-PDC tumor spheroids with HUVEC/MSC, viability
Experiment: Anticancer human tumor 777334-354-R2-J4-PDC patient-derived pancreatic adenocarcinoma cell line growth inhibition [GQUAD]
Settings: for viability, T/C: stronger effect = lower value
Description: DNA G-quadruplex Stabilizer Agents in Combinations in Complex Spheroids
A high-throughput screen of multi-cell type tumor spheroids was designed to identify active combinations of DNA G-quadruplex stabilizer agents and targeted small molecules. Complex spheroids include a stromal component modeled by human endothelial cells (HUVEC) and fibroblasts modeled by human mesenchymal stem cells (MSCs). The concentration ranges selected for each drug and investigational agent were based upon clinically achievable concentrations if the clinical Cmax of the agent was known.
Compounds. The drugs and investigational agents: pidnarulex (CX-5461; NSC782164), APTO-253 (NSC789042), BRACO-19 (NSC847499), peposertib (NSC802822), ceralasertib (NSC780249), elimusertib (NSC800525), camonsertib (NSC841442), AZD-1390 (NSC803789), olaparib (NSC753686), talazoparib (NSC767125), ART-558 (NSC835418), sotorasib (NSC818433), MRTX-1133 (NSC836407), SN-38 (NSC673596), topotecan (NSC609699), etoposide (NSC141540), doxorubicin (NSC123127), gemcitabine (NSC613327), 5-fluorouracil (NSC19893), paclitaxel (NSC125973), vemurafenib (NSC761431), panobinostat (NSC761190), R-306465 (JNJ-16241199; NSC773264), adavosertib (NSC754352), TP-3654 (NSC805149), carboplatin (NSC241240), KSQ-4279 (NSC840948), and staurosporine (NSC755774) were obtained from the National Cancer Institute (NCI) Developmental Therapeutics Program Chemical Repository (34). The FDA-approved anticancer drug set is available from the NCI Developmental Therapeutics Program. […] The stock solutions were prepared in dimethyl sulfoxide (DMSO, Sigma-Aldrich, St. Louis, MO, cat. D2650) at 800-fold the tested concentration and stored at -70 degrees C prior to their use. All drugs and investigational agents were tested over a range starting from a high concentration at or near the clinical Cmax and decreasing in half-log increments. If the clinical Cmax for an agent had not been determined, the highest concentration tested was 10 microM.
2.3 Cell Culture. All cells were maintained in an incubator at 37 degrees C and 5% CO2 with 95% humidity. The PDC lines were cultured according to standard operating procedures established by the NCI PDMR. All PDCs were thawed and cultured in Matrigel-coated flasks prepared with a working solution of 1X Ham's F-12 nutrient mix, without supplementation (Invitrogen, cat. 11765054), 100 U/mL penicillin-streptomycin (Invitrogen, cat. 15140122), and 2.5% Matrigel (Corning Inc., cat. 354248) for the first three passages. The 857933-349-R-J2-PDC line was cultured in 6C/Colon 1B media, which includes advanced DMEM/F-12 (Thermo Fisher Scientific, cat. 12634028), 10 mM HEPES (Thermo Fisher Scientific, cat. 15630080), 1X GlutaMAX supplement (Thermo Fisher Scientific, cat. 35050061), 0.1 mg/mL primocin (InvivoGen, cat. ant-pm-2), 10% defined fetal bovine serum, heat inactivated (HyClone Laboratories Inc., cat. SH30070.03HI), 50% L-WRN conditioned media (ATCC, cat. CRL-3276), 1.25 mM N-Acetyl-L-cysteine (Sigma-Aldrich, cat. A9165), 10 mM nicotinamide (Sigma-Aldrich, cat. N0636), 1X B-27 supplement (Thermo Fisher Scientific, cat. 17504044), 1X N-2 supplement (Thermo Fisher Scientific, cat. 17502048), 10 microM Y-27632 dihydrochloride (Tocris Bioscience, cat. 1254), and 50 ng/mL human EGF recombinant protein (Thermo Fisher Scientific, cat. PHG0311). The 485176-168-R4-J1-PDC line was cultured in Panc media, which includes all 6C/Colon 1B media components plus 100 ng/mL human FGF-10 (Thermo Fisher Scientific, cat. 100-26), 500 nM SB-431542 (Selleckchem, cat. S1067), and gastrin (Tocris, cat. 3006).
[…]

[1] = curve of first compound, second compound 0.0316 µM
[2] = curve of first compound, second compound 0.1 µM
[3] = curve of first compound, second compound 0.316 µM
[4] = curve of first compound, second compound 1 µM
[5] = curve of first compound, second compound 3.16 µM
[6] = curve of first compound, second compound 10 µM
[7] = second compound 0.0316 µM, first compound 0.0316 µM
[8] = second compound 0.0316 µM, first compound 0.1 µM
[9] = second compound 0.0316 µM, first compound 0.316 µM
[10] = second compound 0.0316 µM, first compound 1 µM
[11] = second compound 0.0316 µM, first compound 3.16 µM
[12] = second compound 0.0316 µM, first compound 10 µM
[13] = second compound 0.1 µM, first compound 0.0316 µM
[14] = second compound 0.1 µM, first compound 0.1 µM
[15] = second compound 0.1 µM, first compound 0.316 µM
[16] = second compound 0.1 µM, first compound 1 µM
[17] = second compound 0.1 µM, first compound 3.16 µM
[18] = second compound 0.1 µM, first compound 10 µM
[19] = second compound 0.316 µM, first compound 0.0316 µM
[20] = second compound 0.316 µM, first compound 0.1 µM
[21] = second compound 0.316 µM, first compound 0.316 µM
[22] = second compound 0.316 µM, first compound 1 µM
[23] = second compound 0.316 µM, first compound 3.16 µM
[24] = second compound 0.316 µM, first compound 10 µM
[25] = second compound 1 µM, first compound 0.0316 µM
[26] = second compound 1 µM, first compound 0.1 µM
[27] = second compound 1 µM, first compound 0.316 µM
[28] = second compound 1 µM, first compound 1 µM
[29] = second compound 1 µM, first compound 3.16 µM
[30] = second compound 1 µM, first compound 10 µM
[31] = second compound 3.16 µM, first compound 0.0316 µM
[32] = second compound 3.16 µM, first compound 0.1 µM
[33] = second compound 3.16 µM, first compound 0.316 µM
[34] = second compound 3.16 µM, first compound 1 µM
[35] = second compound 3.16 µM, first compound 3.16 µM
[36] = second compound 3.16 µM, first compound 10 µM
[37] = second compound 10 µM, first compound 0.0316 µM
[38] = second compound 10 µM, first compound 0.1 µM
[39] = second compound 10 µM, first compound 0.316 µM
[40] = second compound 10 µM, first compound 1 µM
[41] = second compound 10 µM, first compound 3.16 µM
[42] = second compound 10 µM, first compound 10 µM
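Also: spheroids exposed to compounds for 7 days before readout.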

`CC(C)(O)C1CCC(Nc2ccc3ncc(-c4cccc(C(F)(F)F)c4)n3n2)CC1` (stereo not given) + Cc1[nH]c2ccc(F)cc2c1-c1nc2c3cccnc3c3ncccc3c2[nH]1 was tested, and the IC50 [1] was 1.5 µM, the IC50 [2] was 1.33 µM and the IC50 [3] was 1.06 µM. The IC50 [4] was 0.874 µM, the IC50 [5] was less than 0.0316 µM and the IC50 [6] was less than 0.0316 µM. For the same compound, the viability, T/C [7] was 82.8%, the viability, T/C [8] was 97.5% and the viability, T/C [9] was 87.3%. It also gave a viability, T/C [10] of 59.9%, a viability, T/C [11] of 30.1% and a viability, T/C [12] of 33.9%. For the same compound, the viability, T/C [13] was 96.7%, the viability, T/C [14] was 94.5% and the viability, T/C [15] was 84.8%. It also gave a viability, T/C [16] of 55%, a viability, T/C [17] of 35.1% and a viability, T/C [18] of 32.4%. It also gave a viability, T/C [19] of 96.7%, a viability, T/C [20] of 87.2% and a viability, T/C [21] of 87%. It also gave a viability, T/C [22] of 51.2%, a viability, T/C [23] of 30.3% and a viability, T/C [24] of 32.7%. The viability, T/C [25] was 86.7%, the viability, T/C [26] was 68.2% and the viability, T/C [27] was 82.4%. It also gave a viability, T/C [28] of 46.1%, a viability, T/C [29] of 29.7% and a viability, T/C [30] of 24.6%. It also gave a viability, T/C [31] of 35.1%, a viability, T/C [32] of 28.4% and a viability, T/C [33] of 23.2%. For the same compound, the viability, T/C [34] was 12.9%, the viability, T/C [35] was 8.53% and the viability, T/C [36] was 10.5%. It also gave a viability, T/C [37] of 26.7%, a viability, T/C [38] of 27.6% and a viability, T/C [39] of 18%. For the same compound, the viability, T/C [40] was 12.3%, the viability, T/C [41] was 7.51% and the viability, T/C [42] was 7.22%.

`CC(C)n1c(=O)n(C)c2cnc3cc(F)c(-c4ccc(OCCCN5CCCCC5)nc4)cc3c21` + Cc1cnc(CNC(=O)c2c(=O)c3ccc(N4CCCN(C)CC4)nc3n3c2sc2ccccc23)cn1 gave an IC50 [1] greater than 10 µM, an IC50 [2] greater than 10 µM and an IC50 [3] greater than 10 µM. The IC50 [4] was greater than 10 µM, the IC50 [5] was greater than 10 µM and the IC50 [6] was greater than 10 µM. For the same compound, the viability, T/C [7] was 85.8%, the viability, T/C [8] was 84% and the viability, T/C [9] was 93.9%. For the same compound, the viability, T/C [10] was 91%, the viability, T/C [11] was 103% and the viability, T/C [12] was 85.6%. The viability, T/C [13] was 78.3%, the viability, T/C [14] was 74.3% and the viability, T/C [15] was 89.1%. It also gave a viability, T/C [16] of 73.6%, a viability, T/C [17] of 74.2% and a viability, T/C [18] of 91.4%. The viability, T/C [19] was 71.4%, the viability, T/C [20] was 73.2% and the viability, T/C [21] was 73.8%. The viability, T/C [22] was 84.7%, the viability, T/C [23] was 76% and the viability, T/C [24] was 74.8%. It also gave a viability, T/C [25] of 73.3%, a viability, T/C [26] of 71.6% and a viability, T/C [27] of 66.9%. The viability, T/C [28] was 72.7%, the viability, T/C [29] was 85.7% and the viability, T/C [30] was 73.7%. For the same compound, the viability, T/C [31] was 57.6%, the viability, T/C [32] was 62.8% and the viability, T/C [33] was 66.5%. It also gave a viability, T/C [34] of 62.1%, a viability, T/C [35] of 78.6% and a viability, T/C [36] of 63.4%. For the same compound, the viability, T/C [37] was 57.4%, the viability, T/C [38] was 52.9% and the viability, T/C [39] was 61.6%. It also gave a viability, T/C [40] of 62%, a viability, T/C [41] of 69% and a viability, T/C [42] of 64.1%.

In the case of `CC(=O)O[C@H]1C(=O)[C@@]2(C)[C@H]([C@H](OC(=O)c3ccccc3)[C@]3(O)C[C@H](OC(=O)[C@H](O)[C@@H](NC(=O)c4ccccc4)c4ccccc4)C(C)=C1C3(C)C)[C@]1(OC(C)=O)CO[C@@H]1C[C@@H]2O`, the viability, T/C (compound 0.0316 µM) is reported as 78.3% and 74% and 80.3%, the viability, T/C (compound 0.1 µM) is reported as 61.3% and 56% and 57.1% and the viability, T/C (compound 0.316 µM) is reported as 47.8% and 50% and 43.4%. For the same compound, the viability, T/C (compound 1 µM) was 46% and 46.2% and 44.1%, the viability, T/C (compound 3.16 µM) was 45.2% and 46.1% and 39.9% and the viability, T/C (compound 10 µM) was 47.9% and 45% and 51.3%. For the same compound, the IC50 (curve of compound) was 0.26 µM and 0.276 µM and 0.193 µM.

In the case of `CC(C)(O)C1CCC(Nc2ccc3ncc(-c4cccc(C(F)(F)F)c4)n3n2)CC1` (stereo not given), the viability, T/C (compound 0.0316 µM) is reported as 84.4% and 103% and 93.7%, the viability, T/C (compound 0.1 µM) is reported as 80.4% and 88.1% and 93.2% and the viability, T/C (compound 0.316 µM) is reported as 82.7% and 83.2% and 94.2%. For the same compound, the viability, T/C (compound 1 µM) was 62.6% and 55.1% and 44.4%, the viability, T/C (compound 3.16 µM) was 32.1% and 31.5% and 31.2% and the viability, T/C (compound 10 µM) was 34.5% and 39.3% and 36.5%. The IC50 (curve of compound) was 1.64 µM and 1.29 µM and 0.876 µM.

`Nc1ccn(C2OC(CO)C(O)C2(F)F)c(=O)n1` (stereo not given) was tested, and the viability, T/C (compound 0.0316 µM) was 91.5% and 76.4% and 76.8%, the viability, T/C (compound 0.1 µM) was 73% and 69.4% and 80% and the viability, T/C (compound 0.316 µM) was 64.9% and 57.5% and 76.6%. For the same compound, the viability, T/C (compound 1 µM) was 51.7% and 46.7% and 49.9%, the viability, T/C (compound 3.16 µM) was 41.5% and 36.5% and 39.1% and the viability, T/C (compound 10 µM) was 32.9% and 28.9% and 31.4%. For the same compound, the IC50 (curve of compound) was 1.21 µM and 0.707 µM and 1.05 µM.
